In this experiment the test system is Veillonella in human gut. Nature of the experiment: Veillonella level in human fecal samples by 16S rRNA sequencing before and after 2′-Fucosyllactose supplementation. The experiment is classed as in vivo. An excerpt: The genus, Veillonella, were quantified through the fecal samples collected by the human subjects. 16S ribosomal RNA (rRNA) sequencing was used to quantify the relative abundance of Veillonella in the human fecal samples. Veillonella levels were expressed as a percentage of total gut bacteria. Veillonella levels were quantified before the supplementation of 2′-Fucosyllactose and also after the supplementation of 2′-Fucosyllactose. The human subjects were asked to take 2′-Fucosyllactose daily doses ranging from 2000 mg to 4500 mg for 20-60 days with liquid and not to change their regular diet during the period. Four healthy subjects were asked to test their fecal samples and determine the baseline level of Veillonella before taking the 2′-Fucosyllactose. After collecting their initial fecal samples, they were instructed to take 2′-Fucosyllactose daily at doses between 2000 mg-4500 mg per day with liquid and not change their regular diet. The subject was asked to stop the supplementation of 2′-Fucosyllactose after 20-60 days. The subjects were instructed to collect their fecal samples immediately after stopping the supplementation and the fecal samples were tested thereafter. The levels of Veillonella in the fecal samples were quantified by 16S ribosomal RNA (rRNA) sequencing.

For 2′-Fucosyllactose, the “level of Veillonella (percentage of total gut bacteria) after 2′-Fucosyllactose intake” value (average of 4 human subjects, fecal samples, oral 2000-4500 mg daily, 30-45 days, 0.018% before intake, P<0.05) is reported as 0.046%. For the same substance, the “change of the level of Veillonella in the human gut” value (daily dosages of 2000-4500 mg, after 20-60 days) is “significantly increased”. The “change of the level of Veillonella in the gut” value (human subjects, supplementation for 30-45 days, FIG. 1) is given as “significantly increased”.

The values above are taken from US20240350520A1, “Method to Stimulate the Growth of Veillonella in Human Gut and Increase Athletic Performance” (Mellitas Health Foods, LLC, priority 2023, published 2024).
